# Experimental data from ChEMBL document CHEMBL4800730 (2021).
# Calls of active or inactive are those of the source. No cut-off for these calls is given here.
# Columns and labels:
# [1] = biological target: Receptor-type tyrosine-protein kinase FLT3 (Homo sapiens) (UniProt P36888); assay: FLT3 SelectScreen Kinase panel (LifeTechnologies); conditions: Compound concentration 1.0 uM
# [2] = biological target: Muscarinic acetylcholine receptor M2 (Homo sapiens) (UniProt P08172); conditions: Compound concentration 10.0 uM
# [3] = biological target: DNA-dependent protein kinase catalytic subunit (Homo sapiens) (UniProt P78527); assay: DNA-PK SelectScreen Kinase panel (LifeTechnologies); conditions: Compound concentration 1.0 uM
# [4] = biological target: Protein kinase C epsilon type (Homo sapiens) (UniProt Q02156); assay: PRKCE (PKC epsilon) SelectScreen Kinase panel (LifeTechnologies); conditions: Compound concentration 1.0 uM
# [5] = biological target: Angiopoietin-1 receptor (Homo sapiens) (UniProt Q02763); assay: TEK (Tie2) SelectScreen Kinase panel (LifeTechnologies); conditions: Compound concentration 1.0 uM
# [6] = biological target: Cytoplasmic tyrosine-protein kinase BMX (Homo sapiens) (UniProt P51813); assay: BMX SelectScreen Kinase panel (LifeTechnologies); conditions: Compound concentration 1.0 uM
# [7] = biological target: Alpha-1A adrenergic receptor (Homo sapiens, UniProt P35348); assay: GPCRScan assay: inhibition of Alpha1A; design: radioligand conc. used [nm] 0.2 - 1.0, parental cells stable HEK
# [8] = biological target: Ephrin type-B receptor 4 (Homo sapiens) (UniProt P54760); assay: EPHB4 SelectScreen Kinase panel (LifeTechnologies); conditions: Compound concentration 1.0 uM
# [9] = biological target: Tyrosine-protein kinase Lck (Homo sapiens) (UniProt P06239); assay: LCK SelectScreen Kinase panel (LifeTechnologies); conditions: Compound concentration 1.0 uM
# [10] = biological target: Sodium-dependent dopamine transporter (Homo sapiens, UniProt Q01959); conditions: Compound concentration 10.0 uM
# [11] = biological target: Sigma intracellular receptor 2 (Homo sapiens) (UniProt Q5BJF2); conditions: Compound concentration 10.0 uM
# Sigma intracellular receptor 2 (Homo sapiens), sequence (Q5BJF2 whole entry): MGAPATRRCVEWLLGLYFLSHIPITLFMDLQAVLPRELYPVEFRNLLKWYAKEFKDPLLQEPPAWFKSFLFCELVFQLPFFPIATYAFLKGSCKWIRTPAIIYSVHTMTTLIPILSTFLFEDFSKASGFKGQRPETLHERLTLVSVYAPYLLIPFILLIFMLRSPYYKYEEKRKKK
# [12] = biological target: Protein kinase C beta type (Homo sapiens) (UniProt P05771); assay: PRKCB1 (PKC beta I) SelectScreen Kinase panel (LifeTechnologies); conditions: Compound concentration 1.0 uM
# [13] = biological target: Ribosomal protein S6 kinase alpha-5 (Homo sapiens) (UniProt O75582); assay: RPS6KA5 (MSK1) SelectScreen Kinase panel (LifeTechnologies); conditions: Compound concentration 1.0 uM
# [14] = biological target: Tyrosine-protein kinase JAK2 (Homo sapiens) (UniProt O60674); assay: JAK2 SelectScreen Kinase panel (LifeTechnologies); conditions: Compound concentration 1.0 uM
# [15] = biological target: cGMP-dependent protein kinase 2 (Homo sapiens) (UniProt Q13237); assay: PRKG2 (PKG2) SelectScreen Kinase panel (LifeTechnologies); conditions: Compound concentration 1.0 uM
# [16] = biological target: Histamine H4 receptor (Homo sapiens) (UniProt Q9H3N8); conditions: Compound concentration 10.0 uM
# Histamine H4 receptor (Homo sapiens), sequence (Q9H3N8 whole entry): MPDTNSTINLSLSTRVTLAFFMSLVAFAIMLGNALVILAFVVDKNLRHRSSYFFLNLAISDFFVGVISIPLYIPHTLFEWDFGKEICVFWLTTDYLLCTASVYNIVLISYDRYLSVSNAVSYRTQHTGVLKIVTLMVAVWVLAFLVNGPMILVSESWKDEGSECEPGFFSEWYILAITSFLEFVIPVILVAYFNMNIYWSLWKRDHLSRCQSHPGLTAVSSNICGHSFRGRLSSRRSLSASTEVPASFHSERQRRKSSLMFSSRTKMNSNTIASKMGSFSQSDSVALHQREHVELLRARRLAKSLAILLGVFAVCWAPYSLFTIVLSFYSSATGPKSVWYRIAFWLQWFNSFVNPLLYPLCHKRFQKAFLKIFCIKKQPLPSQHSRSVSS
# MCF7 = assay: CellTiter-Glo luminescent cell viability assay (CTG) with MCF-7 cells; assay type: functional, cell-based; conditions: Homo sapiens
# [17] = biological target: Protein kinase C theta type (Homo sapiens) (UniProt Q04759); assay: PRKCQ (PKC theta) SelectScreen Kinase panel (LifeTechnologies); conditions: Compound concentration 1.0 uM
# [18] = biological target: Serine/threonine-protein kinase D1 (Homo sapiens) (UniProt Q15139); assay: PRKD1 (PKC mu) SelectScreen Kinase panel (LifeTechnologies); conditions: Compound concentration 1.0 uM
# [19] = biological target: Histamine H1 receptor (Homo sapiens) (UniProt P35367); conditions: Compound concentration 10.0 uM
# [20] = biological target: Insulin-like growth factor 1 receptor (Homo sapiens) (UniProt P08069); assay: IGF1R SelectScreen Kinase panel (LifeTechnologies); conditions: Compound concentration 1.0 uM
# [21] = biological target: Beta-1 adrenergic receptor (Homo sapiens) (UniProt P08588); conditions: Compound concentration 10.0 uM
# [22] = biological target: Focal adhesion kinase 1 (Homo sapiens) (UniProt Q05397); assay: PTK2 (FAK) SelectScreen Kinase panel (LifeTechnologies); conditions: Compound concentration 1.0 uM
# Focal adhesion kinase 1 (Homo sapiens), sequence (Q05397 2-1052 limits assumed): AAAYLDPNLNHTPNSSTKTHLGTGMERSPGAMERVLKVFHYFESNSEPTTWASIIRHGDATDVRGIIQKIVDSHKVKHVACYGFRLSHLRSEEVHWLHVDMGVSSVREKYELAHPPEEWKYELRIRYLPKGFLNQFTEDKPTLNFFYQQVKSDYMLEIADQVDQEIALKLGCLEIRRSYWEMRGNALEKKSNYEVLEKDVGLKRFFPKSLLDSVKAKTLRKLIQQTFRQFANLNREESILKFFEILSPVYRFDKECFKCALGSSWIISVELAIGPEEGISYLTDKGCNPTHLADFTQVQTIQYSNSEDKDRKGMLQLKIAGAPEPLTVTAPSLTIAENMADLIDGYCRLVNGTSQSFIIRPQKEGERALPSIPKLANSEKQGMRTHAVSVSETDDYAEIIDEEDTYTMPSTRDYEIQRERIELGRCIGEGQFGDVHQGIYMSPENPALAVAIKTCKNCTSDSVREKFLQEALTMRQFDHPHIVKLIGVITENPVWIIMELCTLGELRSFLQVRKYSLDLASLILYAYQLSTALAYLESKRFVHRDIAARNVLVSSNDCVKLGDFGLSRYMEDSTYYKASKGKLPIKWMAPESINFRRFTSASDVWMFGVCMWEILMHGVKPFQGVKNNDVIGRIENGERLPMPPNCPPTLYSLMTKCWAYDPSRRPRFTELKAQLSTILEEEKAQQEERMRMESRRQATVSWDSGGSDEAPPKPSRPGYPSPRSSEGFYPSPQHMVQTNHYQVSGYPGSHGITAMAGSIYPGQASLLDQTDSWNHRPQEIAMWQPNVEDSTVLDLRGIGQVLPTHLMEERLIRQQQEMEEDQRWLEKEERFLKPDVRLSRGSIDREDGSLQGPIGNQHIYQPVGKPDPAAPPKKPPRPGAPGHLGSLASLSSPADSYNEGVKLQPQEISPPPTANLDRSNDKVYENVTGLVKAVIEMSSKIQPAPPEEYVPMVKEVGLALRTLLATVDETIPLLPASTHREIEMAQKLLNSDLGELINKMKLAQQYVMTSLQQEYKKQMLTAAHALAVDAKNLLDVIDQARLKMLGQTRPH
# [23] = biological target: Serine/threonine-protein kinase PAK 4 (Homo sapiens) (UniProt O96013); assay: PAK4 SelectScreen Kinase panel (LifeTechnologies); conditions: Compound concentration 1.0 uM
# [24] = biological target: Serine/threonine-protein kinase MARK1 (Homo sapiens) (UniProt Q9P0L2); assay: MARK1 (MARK) SelectScreen Kinase panel (LifeTechnologies); conditions: Compound concentration 1.0 uM
# [25] = biological target: Protein kinase C iota type (Homo sapiens) (UniProt P41743); assay: PRKCI (PKC iota) SelectScreen Kinase panel (LifeTechnologies); conditions: Compound concentration 1.0 uM
# [26] = biological target: Ribosomal protein S6 kinase alpha-3 (Homo sapiens) (UniProt P51812); assay: RPS6KA3 (RSK2) SelectScreen Kinase panel (LifeTechnologies); conditions: Compound concentration 1.0 uM
# [27] = biological target: Tyrosine-protein kinase SYK (Homo sapiens) (UniProt P43405); assay: SYK SelectScreen Kinase panel (LifeTechnologies); conditions: Compound concentration 1.0 uM
# [28] = biological target: D(1A) dopamine receptor (Homo sapiens) (UniProt P21728); conditions: Compound concentration 10.0 uM
# [29] = biological target: G protein-coupled receptor kinase 6 (Homo sapiens) (UniProt P43250); assay: GRK6 SelectScreen Kinase panel (LifeTechnologies); conditions: Compound concentration 1.0 uM
# [30] = biological target: Protein kinase C zeta type (Homo sapiens) (UniProt Q05513); assay: PRKCZ (PKC zeta) SelectScreen Kinase panel (LifeTechnologies); conditions: Compound concentration 1.0 uM
# [31] = biological target: Rho-associated protein kinase 1 (Homo sapiens) (UniProt Q13464); assay: ROCK1 SelectScreen Kinase panel (LifeTechnologies); conditions: Compound concentration 1.0 uM
# [32] = biological target: Maternal embryonic leucine zipper kinase (Homo sapiens) (UniProt Q14680); assay: MELK SelectScreen Kinase panel (LifeTechnologies); conditions: Compound concentration 1.0 uM
# [33] = biological target: Mast/stem cell growth factor receptor Kit (Homo sapiens) (UniProt P10721); assay: KIT SelectScreen Kinase panel (LifeTechnologies); conditions: Compound concentration 1.0 uM
# [34] = NanoBRET assay (AKT3); conditions: Homo sapiens
# [35] = biological target: Sodium-dependent noradrenaline transporter (Homo sapiens) (UniProt P23975); conditions: Compound concentration 10.0 uM
# [36] = biological target: Muscarinic acetylcholine receptor M3 (Homo sapiens) (UniProt P20309); conditions: Compound concentration 10.0 uM
# [37] = biological target: 5-hydroxytryptamine receptor 1A (Homo sapiens) (UniProt P08908); conditions: Compound concentration 10.0 uM
# [38] = biological target: PAS domain-containing serine/threonine-protein kinase (Homo sapiens) (UniProt Q96RG2); assay: PASK SelectScreen Kinase panel (LifeTechnologies); conditions: Compound concentration 1.0 uM
# [39] = biological target: Tyrosine-protein kinase BTK (Homo sapiens) (UniProt Q06187); assay: BTK SelectScreen Kinase panel (LifeTechnologies); conditions: Compound concentration 1.0 uM
# [40] = biological target: Protein kinase C alpha type (Homo sapiens) (UniProt P17252); assay: PRKCA (PKC alpha) SelectScreen Kinase panel (LifeTechnologies); conditions: Compound concentration 1.0 uM
# [41] = biological target: Serine/threonine-protein kinase Sgk1 (Homo sapiens) (UniProt O00141); assay: SGK (SGK1) SelectScreen Kinase panel (LifeTechnologies); conditions: Compound concentration 1.0 uM
# Serine/threonine-protein kinase Sgk1 (Homo sapiens), sequence (O00141 whole entry): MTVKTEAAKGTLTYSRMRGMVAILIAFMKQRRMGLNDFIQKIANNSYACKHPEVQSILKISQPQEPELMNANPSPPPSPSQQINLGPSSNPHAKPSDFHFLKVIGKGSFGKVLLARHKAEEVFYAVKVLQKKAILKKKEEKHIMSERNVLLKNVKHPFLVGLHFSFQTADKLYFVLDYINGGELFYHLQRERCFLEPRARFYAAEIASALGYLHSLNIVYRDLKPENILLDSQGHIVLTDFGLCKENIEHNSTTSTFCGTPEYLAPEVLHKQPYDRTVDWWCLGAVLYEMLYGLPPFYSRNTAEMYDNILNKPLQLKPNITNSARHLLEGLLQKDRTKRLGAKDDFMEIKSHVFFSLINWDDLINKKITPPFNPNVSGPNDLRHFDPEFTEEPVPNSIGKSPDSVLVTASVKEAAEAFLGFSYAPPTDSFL
# [42] = biological target: Serine/threonine-protein kinase PLK1 (Homo sapiens) (UniProt P53350); assay: PLK1 SelectScreen Kinase panel (LifeTechnologies); conditions: Compound concentration 1.0 uM
# Serine/threonine-protein kinase PLK1 (Homo sapiens), sequence (P53350 whole entry): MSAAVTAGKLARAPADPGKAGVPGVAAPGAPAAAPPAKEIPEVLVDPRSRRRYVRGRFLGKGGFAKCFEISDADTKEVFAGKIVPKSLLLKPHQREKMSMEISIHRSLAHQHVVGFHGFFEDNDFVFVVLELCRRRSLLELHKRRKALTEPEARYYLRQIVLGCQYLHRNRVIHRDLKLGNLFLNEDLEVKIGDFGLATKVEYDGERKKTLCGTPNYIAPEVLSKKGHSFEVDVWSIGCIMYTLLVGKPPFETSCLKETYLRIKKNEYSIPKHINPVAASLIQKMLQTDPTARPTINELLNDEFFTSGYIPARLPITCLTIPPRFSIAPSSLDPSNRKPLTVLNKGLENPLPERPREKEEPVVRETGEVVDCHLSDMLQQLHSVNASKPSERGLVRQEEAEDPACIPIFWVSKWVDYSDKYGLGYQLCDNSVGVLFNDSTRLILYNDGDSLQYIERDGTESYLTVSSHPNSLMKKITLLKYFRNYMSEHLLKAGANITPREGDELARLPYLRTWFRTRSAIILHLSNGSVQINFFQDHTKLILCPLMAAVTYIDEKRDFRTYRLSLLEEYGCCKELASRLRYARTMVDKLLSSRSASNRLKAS
# [43] = biological target: Serine/threonine-protein kinase MRCK alpha (Homo sapiens) (UniProt Q5VT25); assay: CDC42 BPA (MRCKA) SelectScreen Kinase panel (LifeTechnologies); conditions: Compound concentration 1.0 uM
# Serine/threonine-protein kinase MRCK alpha (Homo sapiens), sequence (Q5VT25 whole entry): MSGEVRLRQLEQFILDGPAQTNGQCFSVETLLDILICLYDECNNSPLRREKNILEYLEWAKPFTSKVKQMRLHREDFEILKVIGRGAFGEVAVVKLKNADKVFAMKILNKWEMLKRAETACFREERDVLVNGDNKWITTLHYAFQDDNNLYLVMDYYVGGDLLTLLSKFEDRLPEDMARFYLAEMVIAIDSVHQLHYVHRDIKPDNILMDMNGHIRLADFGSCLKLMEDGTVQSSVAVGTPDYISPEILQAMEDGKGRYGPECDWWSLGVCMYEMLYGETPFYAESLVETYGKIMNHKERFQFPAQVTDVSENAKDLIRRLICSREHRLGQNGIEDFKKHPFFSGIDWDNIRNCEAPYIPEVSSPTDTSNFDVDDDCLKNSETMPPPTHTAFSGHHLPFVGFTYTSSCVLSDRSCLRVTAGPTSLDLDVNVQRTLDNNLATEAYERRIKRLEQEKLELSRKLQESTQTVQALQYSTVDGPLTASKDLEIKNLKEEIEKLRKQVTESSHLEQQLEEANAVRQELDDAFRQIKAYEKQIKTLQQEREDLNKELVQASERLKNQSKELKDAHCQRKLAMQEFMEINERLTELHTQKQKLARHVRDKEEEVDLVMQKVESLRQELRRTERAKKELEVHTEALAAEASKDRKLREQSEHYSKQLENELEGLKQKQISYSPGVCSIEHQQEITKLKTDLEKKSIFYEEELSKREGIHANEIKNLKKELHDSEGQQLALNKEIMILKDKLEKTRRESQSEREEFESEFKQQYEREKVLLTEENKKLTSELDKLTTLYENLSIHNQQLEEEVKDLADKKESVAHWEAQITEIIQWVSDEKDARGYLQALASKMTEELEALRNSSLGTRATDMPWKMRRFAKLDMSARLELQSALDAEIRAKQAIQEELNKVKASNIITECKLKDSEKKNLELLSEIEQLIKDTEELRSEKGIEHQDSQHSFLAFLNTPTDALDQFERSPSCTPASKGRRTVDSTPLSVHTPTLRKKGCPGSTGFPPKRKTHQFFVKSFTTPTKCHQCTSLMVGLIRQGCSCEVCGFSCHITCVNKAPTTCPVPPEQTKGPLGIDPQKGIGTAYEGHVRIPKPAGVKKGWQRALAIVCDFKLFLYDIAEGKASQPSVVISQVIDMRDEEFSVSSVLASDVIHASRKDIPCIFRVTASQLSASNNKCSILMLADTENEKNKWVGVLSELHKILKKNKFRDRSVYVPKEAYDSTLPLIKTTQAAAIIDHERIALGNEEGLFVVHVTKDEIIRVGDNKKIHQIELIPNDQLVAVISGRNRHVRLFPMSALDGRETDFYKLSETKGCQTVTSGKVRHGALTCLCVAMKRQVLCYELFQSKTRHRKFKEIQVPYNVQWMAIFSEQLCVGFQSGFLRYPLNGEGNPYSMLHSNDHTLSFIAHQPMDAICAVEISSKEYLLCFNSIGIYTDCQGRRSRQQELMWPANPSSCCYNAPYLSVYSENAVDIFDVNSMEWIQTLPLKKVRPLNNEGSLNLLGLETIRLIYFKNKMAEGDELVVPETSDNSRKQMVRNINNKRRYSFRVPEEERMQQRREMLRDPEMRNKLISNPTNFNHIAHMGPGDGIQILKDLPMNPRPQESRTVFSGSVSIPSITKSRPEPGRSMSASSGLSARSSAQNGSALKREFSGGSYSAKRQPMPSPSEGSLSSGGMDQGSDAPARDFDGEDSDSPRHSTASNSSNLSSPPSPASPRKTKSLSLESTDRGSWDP
# [44] = biological target: 5-hydroxytryptamine receptor 1B (Homo sapiens) (UniProt P28222); conditions: Compound concentration 10.0 uM
compound,measurement,setting,value
C=CC(=O)Nc1ccc2[nH]c(=O)n(C3CCN(Cc4ccc(-c5nc6cc[nH]c(=O)c6cc5-c5ccccc5)cc4)CC3)c2c1 [Borussertib],inhibition,[1],17%
same,inhibition,[2],3.07%
same,inhibition,[3],0%
same,inhibition,[4],-1%
same,inhibition,[5],13%
same,inhibition,[6],7%
same,Ki,[7],2660 nM
same,inhibition,[8],7%
same,inhibition,[9],8%
same,inhibition,[10],59.7%
same,inhibition,[11],24.8%
same,inhibition,[12],-7%
same,inhibition,[13],2%
same,inhibition,[14],-8%
same,inhibition,[15],2%
same,inhibition,[16],31.3%
same,EC50,MCF7,280 nM (active)
same,inhibition,[17],35%
same,inhibition,[18],10%
same,inhibition,[19],23.8%
same,inhibition,[20],-4%
same,inhibition,[21],-0.86%
same,inhibition,[22],4%
same,inhibition,[23],7%
same,inhibition,[24],-7%
same,inhibition,[25],6%
same,inhibition,[26],21%
same,inhibition,[27],-3%
same,inhibition,[28],19.2%
same,inhibition,[29],2%
same,inhibition,[30],-1%
same,inhibition,[31],9%
same,inhibition,[32],30%
same,inhibition,[33],8%
same,EC50,[34],29 nM (active)
same,IC50,[34],4300 nM (not active)
same,inhibition,[35],4.49%
same,inhibition,[36],5.83%
same,inhibition,[37],15%
same,inhibition,[38],15%
same,inhibition,[39],6%
same,inhibition,[40],10%
same,inhibition,[41],20%
same,inhibition,[42],-3%
same,inhibition,[43],2%
same,inhibition,[44],35.6%
